Reference: ChEMBL document CHEMBL4819125, “Synthesis and anti-proliferation activity of mogrol derivatives bearing quinoline and triazole moieties” (Bioorg Med Chem Lett, 2021)
Active and inactive are the calls of the source. The calls are words filed in the database; no cut-off is given here.

Columns and labels:
A549 [1] = test: Induction of apoptosis in human A549 cells assessed as late apoptotic cells at 15 uM incubated for 72 hrs by annexin V-FITC and PI staining based flow cytometry analysis (reference value: 0.5 %); assay type: functional
A549 [2] = test: Induction of apoptosis in human A549 cells assessed as necrotic cells at 7.5 uM incubated for 72 hrs by annexin V-FITC and PI staining based flow cytometry analysis (reference value: 1.27 %); assay type: functional
A549 [3] = test: Induction of cell cycle arrest in human A549 cells assessed as G2/M phase at 7.5 uM incubated for 72 hrs by PI staining based flow cytometry analysis (reference value: 14.78 %); assay type: functional
A549 [4] = test: Induction of apoptosis in human A549 cells assessed as viable cells at 3.75 uM incubated for 72 hrs by annexin V-FITC and PI staining based flow cytometry analysis (reference value: 95.98 %); assay type: functional; details: read-out: Activity
A549 [5] = test: Induction of cell cycle arrest in human A549 cells assessed as G0/G1 phase at 7.5 uM incubated for 72 hrs by PI staining based flow cytometry analysis (reference value: 53.87 %); assay type: functional
A549 [6] = test: Induction of cell cycle arrest in human A549 cells assessed as G2/M phase at 15 uM incubated for 72 hrs by PI staining based flow cytometry analysis (reference value: 14.78 %); assay type: functional
A549 [7] = test: Induction of cell cycle arrest in human A549 cells assessed as S phase at 15 uM incubated for 72 hrs by PI staining based flow cytometry analysis (reference value: 31.35 %); assay type: functional
A549 [8] = test: Induction of apoptosis in human A549 cells assessed as late apoptotic cells at 7.5 uM incubated for 72 hrs by annexin V-FITC and PI staining based flow cytometry analysis (reference value: 0.5 %); assay type: functional
A549 [9] = test: Induction of apoptosis in human A549 cells assessed as viable cells at 15 uM incubated for 72 hrs by annexin V-FITC and PI staining based flow cytometry analysis (reference value: 95.98 %); assay type: functional; details: read-out: Activity
[10] = molecular target: Signal transducer and activator of transcription 3 (Homo sapiens) (UniProt P40763); test: Inhibition of STAT3 in human A549 cells assessed as reduction in STAT3 phosphorylation incubated for 72 hrs by Western blot analysis; assay type: cell-based; details: dose 3.75-15 µM
Chain of Signal transducer and activator of transcription 3 (Homo sapiens) (P40763 whole entry): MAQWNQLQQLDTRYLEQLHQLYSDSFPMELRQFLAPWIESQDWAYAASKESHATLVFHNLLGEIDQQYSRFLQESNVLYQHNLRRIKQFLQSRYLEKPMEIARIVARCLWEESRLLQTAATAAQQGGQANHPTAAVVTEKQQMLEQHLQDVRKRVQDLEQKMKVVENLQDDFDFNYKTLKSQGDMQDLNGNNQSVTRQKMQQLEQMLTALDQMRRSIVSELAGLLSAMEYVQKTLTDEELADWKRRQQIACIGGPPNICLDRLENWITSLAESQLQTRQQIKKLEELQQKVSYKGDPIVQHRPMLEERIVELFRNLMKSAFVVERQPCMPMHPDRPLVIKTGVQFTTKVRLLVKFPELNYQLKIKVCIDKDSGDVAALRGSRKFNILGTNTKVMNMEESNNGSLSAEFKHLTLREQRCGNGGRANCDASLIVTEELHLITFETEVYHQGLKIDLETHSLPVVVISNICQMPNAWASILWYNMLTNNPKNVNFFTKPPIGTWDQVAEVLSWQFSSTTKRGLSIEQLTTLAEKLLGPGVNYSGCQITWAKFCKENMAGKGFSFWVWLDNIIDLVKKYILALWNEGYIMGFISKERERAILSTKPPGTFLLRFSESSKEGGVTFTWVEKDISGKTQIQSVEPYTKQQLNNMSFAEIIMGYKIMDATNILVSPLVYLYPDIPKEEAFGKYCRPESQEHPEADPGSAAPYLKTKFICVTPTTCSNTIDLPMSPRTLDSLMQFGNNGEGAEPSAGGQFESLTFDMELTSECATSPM

A549 [11] = test: Induction of apoptosis in human A549 cells assessed as necrotic cells at 3.75 uM incubated for 72 hrs by annexin V-FITC and PI staining based flow cytometry analysis (reference value: 1.27 %); assay type: functional
A549 [12] = test: Induction of cell cycle arrest in human A549 cells assessed as S phase at 3.75 uM incubated for 72 hrs by PI staining based flow cytometry analysis (reference value: 31.35 %); assay type: functional
A549 [13] = test: Induction of apoptosis in human A549 cells assessed as early apoptotic cells at 15 uM incubated for 72 hrs by annexin V-FITC and PI staining based flow cytometry analysis (reference value: 2.25 %); assay type: functional
A549 [14] = test: Induction of apoptosis in human A549 cells assessed as late apoptotic cells incubated for 72 hrs by annexin V-FITC and PI staining based flow cytometry analysis; assay type: functional, cell-based; details: dose 3.75-15 µM
A549 [15] = test: Induction of apoptosis in human A549 cells assessed as early apoptotic cells at 7.5 uM incubated for 72 hrs by annexin V-FITC and PI staining based flow cytometry analysis (reference value: 2.25 %); assay type: functional
A549 [16] = test: Induction of cell cycle arrest in human A549 cells assessed as S phase at 7.5 uM incubated for 72 hrs by PI staining based flow cytometry analysis (reference value: 31.35 %); assay type: functional
A549 [17] = test: Induction of apoptosis in human A549 cells assessed as viable cells at 7.5 uM incubated for 72 hrs by annexin V-FITC and PI staining based flow cytometry analysis (reference value: 95.98 %); assay type: functional; details: read-out: Activity
A549 [18] = test: Induction of cell cycle arrest in human A549 cells assessed as G0/G1 phase at 3.75 uM incubated for 72 hrs by PI staining based flow cytometry analysis (reference value: 53.87 %); assay type: functional
A549 [19] = test: Effect on STAT3 expression in human A549 cells at 3.75 to 15 uM incubated for 72 hrs by Western blot analysis; assay type: functional, cell-based; details: dose 3.75-15 µM
A549 [20] = test: Antiproliferative activity against human A549 cells assessed as reduction in cell growth at 30 uM by CCK8 assay relative to control; assay type: functional
A549 [21] = test: Induction of cell cycle arrest in human A549 cells assessed as G0/G1 phase at 15 uM incubated for 72 hrs by PI staining based flow cytometry analysis (reference value: 53.87 %); assay type: functional
A549 [22] = test: Induction of cell cycle arrest in human A549 cells assessed as G2/M phase at 3.75 uM incubated for 72 hrs by PI staining based flow cytometry analysis (reference value: 14.78 %); assay type: functional
A549 [23] = test: Induction of apoptosis in human A549 cells assessed as early apoptotic cells at 3.75 uM incubated for 72 hrs by annexin V-FITC and PI staining based flow cytometry analysis (reference value: 2.25 %); assay type: functional
A549 [24] = test: Induction of apoptosis in human A549 cells assessed as necrotic cells at 15 uM incubated for 72 hrs by annexin V-FITC and PI staining based flow cytometry analysis (reference value: 1.27 %); assay type: functional
NCI-H460 = test: Antiproliferative activity against human NCI-H460 cells assessed as reduction in cell growth at 30 uM by CCK8 assay relative to control; assay type: functional
A549 [25] = test: Induction of cell cycle arrest in human A549 cells assessed as G0/G1 phase incubated for 72 hrs by PI staining based flow cytometry analysis; assay type: functional; details: dose 3.75-15 µM
A549 [26] = test: Induction of apoptosis in human A549 cells assessed as early apoptotic cells incubated for 72 hrs by annexin V-FITC and PI staining based flow cytometry analysis; assay type: functional, cell-based; details: dose 3.75-15 µM
A549 [27] = test: Antiproliferative activity against human A549 cells assessed as reduction in cell growth by CCK8 assay; assay type: functional, cell-based
A549 [28] = test: Induction of apoptosis in human A549 cells assessed as late apoptotic cells at 3.75 uM incubated for 72 hrs by annexin V-FITC and PI staining based flow cytometry analysis (reference value: 0.5 %); assay type: functional

## C[C@H](CC[C@@H](O)C(C)(C)O)[C@H]1CC[C@@]2(C)[C@@H]3CC=C4[C@@H](CC[C@H](O)C4(C)C)[C@]3(C)[C@H](OC(=O)Cn3cc(-c4cccc(Cl)c4)nn3)C[C@]12C
A549 [1]
  Activity: 1.53%
A549 [2]
  Activity: 3.37%
A549 [3]
  Activity: 11.5%
A549 [4]
  viability at 3.75 µM: 94.9%
A549 [5]
  Activity: 60.04%
A549 [6]
  Activity: 11.25%
A549 [7]
  Activity: 16.03%
A549 [8]
  Activity: 1.27%
A549 [9]
  viability at 15 µM: 91.7%
[10]
  inhibition: Dose-Dependent Effect
A549 [11]
  Activity: 2.07%
A549 [12]
  Activity: 30.62%
A549 [13]
  Activity: 4.8%
A549 [14]
  Activity: Dose-Dependent Effect
A549 [15]
  Activity: 3.66%
A549 [16]
  Activity: 28.46%
A549 [17]
  viability at 7.5 µM: 91.7%
A549 [18]
  Activity: 55.45%
A549 [19]
  inhibition: Active
A549 [20]
  inhibition at 30 µM: 90.2%
A549 [21]
  Activity: 72.72%
A549 [22]
  Activity: 13.93%
A549 [23]
  Activity: 2.28%
A549 [24]
  Activity: 1.92%
NCI-H460
  inhibition at 30 µM: 33.8%
A549 [25]
  Activity: Dose-Dependent Effect
A549 [26]
  Activity: Dose-Dependent Effect
A549 [27]
  IC50: 4.47 µM
A549 [28]
  Activity: 0.79%
